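1) Cells in 96-well plates. 2) Compound, 48 h, 5 concentrations. 3) Linear interpolation between surrounding doses. 4) Unreached endpoint = highest concentration. GI50: concentration for 50% inhibition of growth.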 Calls of active or inactive are those of the source. No stated cut-off is given here; in the data, active = GI50 up to about 1.1 µM and inactive = higher.
How the values were obtained:
Assay in all cases: NCI tumour cell line growth inhibition, 48 h
ACHN = test system: ACHN
COLO 205 = test system: COLO 205
DU-145 = test system: DU-145
EKVX = test system: EKVX
HCC 2998 = test system: HCC 2998
HL-60 = test system: HL-60
HT-29 = test system: HT-29
LOX IMVI = test system: LOX IMVI
MDA-MB-435 = test system: MDA-MB-435
Malme-3M = test system: Malme-3M
NCI-H226 = test system: NCI-H226
NCI/ADR-RES = test system: NCI/ADR-RES
OVCAR-3 = test system: OVCAR-3
OVCAR-4 = test system: OVCAR-4
SK-MEL-28 = test system: SK-MEL-28
SNB-19 = test system: SNB-19
SR = test system: SR
UO-31 = test system: UO-31
NCI-H23 = test system: NCI-H23

SMILES	GI50 (ACHN)	GI50 (COLO 205)	GI50 (DU-145)	GI50 (EKVX)	GI50 (HCC 2998)	GI50 (HL-60)	GI50 (HT-29)	GI50 (LOX IMVI)	GI50 (MDA-MB-435)	GI50 (Malme-3M)	GI50 (NCI-H226)	GI50 (NCI/ADR-RES)	GI50 (OVCAR-3)	GI50 (OVCAR-4)	GI50 (SK-MEL-28)	GI50 (SNB-19)	GI50 (SR)	GI50 (UO-31)	GI50 (NCI-H23)
CC(=O)Nc1ccc(Nc2cc(O)nc(O)n2)cc1	> 100 µM (inactive)	> 100 µM (inactive)	> 100 µM (inactive)	> 100 µM (inactive)	> 100 µM (inactive)	> 100 µM (inactive)	> 100 µM (inactive)	> 100 µM (inactive)	> 100 µM (inactive)	> 100 µM (inactive)	> 100 µM (inactive)	> 100 µM (inactive)	> 100 µM (inactive)	> 100 µM (inactive)	> 100 µM (inactive)	> 100 µM (inactive)	> 100 µM (inactive)	> 100 µM (inactive)	–
COc1cc2c3cc1Oc1c(OC)c(OC)cc4c1C(=NCC4)Cc1ccc(cc1)Oc1cc(ccc1O)C[C@H]3N(C)CC2	23.1 µM (inactive)	13.5 µM (inactive)	25.4 µM (inactive)	23.2 µM (inactive)	13.4 µM (inactive)	14 µM (inactive)	10.8 µM (inactive)	12.6 µM (inactive)	18.5 µM (inactive)	0.601 µM (active)	22.6 µM (inactive)	13.6 µM (inactive)	17.7 µM (inactive)	16.1 µM (inactive)	16.7 µM (inactive)	23.4 µM (inactive)	5.74 µM (inactive)	–	19.1 µM (inactive)
COc1c(O)c(O)c2c(c1O)C(=O)c1cc(C)cc(O)c1C2=O	40.3 µM (inactive)	24.5 µM (inactive)	77.1 µM (inactive)	22.4 µM (inactive)	75.2 µM (inactive)	50 µM (inactive)	24.4 µM (inactive)	24.1 µM (inactive)	53.8 µM (inactive)	8.91 µM (inactive)	20 µM (inactive)	16.7 µM (inactive)	26.4 µM (inactive)	14.4 µM (inactive)	98.6 µM (inactive)	65.3 µM (inactive)	31.6 µM (inactive)	23.1 µM (inactive)	29.2 µM (inactive)
CC(C)OC(=O)NNc1cccc(Cl)c1	> 100 µM (inactive)	> 100 µM (inactive)	> 100 µM (inactive)	> 100 µM (inactive)	> 100 µM (inactive)	33.3 µM (inactive)	> 100 µM (inactive)	65.8 µM (inactive)	> 100 µM (inactive)	> 100 µM (inactive)	> 100 µM (inactive)	> 100 µM (inactive)	> 100 µM (inactive)	–	> 100 µM (inactive)	> 100 µM (inactive)	> 100 µM (inactive)	> 100 µM (inactive)	> 100 µM (inactive)
N#Cc1nc(-c2ccc(-c3nc(C#N)c(N)o3)cc2)oc1N	> 10 µM (inactive)	> 10 µM (inactive)	> 10 µM (inactive)	> 10 µM (inactive)	> 10 µM (inactive)	> 10 µM (inactive)	> 10 µM (inactive)	> 10 µM (inactive)	> 10 µM (inactive)	> 10 µM (inactive)	> 10 µM (inactive)	> 10 µM (inactive)	–	> 10 µM (inactive)	> 10 µM (inactive)	> 10 µM (inactive)	> 10 µM (inactive)	> 10 µM (inactive)	> 10 µM (inactive)
CO/N=C(/C(=O)OC)c1ccccc1COc1ccccc1C(F)(F)F	83.6 µM (inactive)	25.4 µM (inactive)	37 µM (inactive)	11.3 µM (inactive)	27.9 µM (inactive)	10.5 µM (inactive)	26.1 µM (inactive)	–	24.4 µM (inactive)	11.6 µM (inactive)	68.4 µM (inactive)	29.3 µM (inactive)	23.8 µM (inactive)	7.21 µM (inactive)	37.8 µM (inactive)	98.2 µM (inactive)	8.32 µM (inactive)	39.1 µM (inactive)	22.1 µM (inactive)
O=P12N(CCN1c1ccccc1)CCN2c1ccccc1	> 100 µM (inactive)	> 100 µM (inactive)	> 100 µM (inactive)	> 100 µM (inactive)	> 100 µM (inactive)	> 100 µM (inactive)	> 100 µM (inactive)	> 100 µM (inactive)	> 100 µM (inactive)	> 100 µM (inactive)	> 100 µM (inactive)	> 100 µM (inactive)	> 100 µM (inactive)	> 100 µM (inactive)	> 100 µM (inactive)	> 100 µM (inactive)	> 100 µM (inactive)	> 100 µM (inactive)	> 100 µM (inactive)
O=C(Nc1ccccc1)c1cc(S(=O)(=O)N2CCNNC2=O)c(S)cc1Cl	> 100 µM (inactive)	> 100 µM (inactive)	90.4 µM (inactive)	> 100 µM (inactive)	> 100 µM (inactive)	> 100 µM (inactive)	–	43.7 µM (inactive)	> 100 µM (inactive)	56.1 µM (inactive)	> 100 µM (inactive)	34.7 µM (inactive)	> 100 µM (inactive)	> 100 µM (inactive)	> 100 µM (inactive)	> 100 µM (inactive)	95.3 µM (inactive)	> 100 µM (inactive)	–
CCOC(=O)[C@@H]1ON2O[C@@H](OC3CCCC3(c3ccccc3)c3ccccc3)C[C@H]3OC(=O)[C@@H]1C32 (some centres not stated)	19.5 µM (inactive)	38.1 µM (inactive)	22.6 µM (inactive)	> 100 µM (inactive)	41.8 µM (inactive)	23.2 µM (inactive)	15.2 µM (inactive)	37.8 µM (inactive)	16.8 µM (inactive)	–	56.6 µM (inactive)	34.4 µM (inactive)	23.4 µM (inactive)	–	–	–	23.1 µM (inactive)	19.1 µM (inactive)	18.4 µM (inactive)
OCc1ccn2c1[C@@H](O)CC2	> 100 µM (inactive)	> 100 µM (inactive)	> 100 µM (inactive)	> 100 µM (inactive)	> 100 µM (inactive)	> 100 µM (inactive)	> 100 µM (inactive)	> 100 µM (inactive)	> 100 µM (inactive)	> 100 µM (inactive)	> 100 µM (inactive)	> 100 µM (inactive)	> 100 µM (inactive)	> 100 µM (inactive)	> 100 µM (inactive)	> 100 µM (inactive)	> 100 µM (inactive)	–	> 100 µM (inactive)
NNC(=O)c1cccc2c1Oc1ccccc1S2	> 100 µM (inactive)	> 100 µM (inactive)	69 µM (inactive)	23.8 µM (inactive)	> 100 µM (inactive)	79.6 µM (inactive)	> 100 µM (inactive)	88.3 µM (inactive)	> 100 µM (inactive)	–	1.23 µM (inactive)	83.9 µM (inactive)	–	> 100 µM (inactive)	> 100 µM (inactive)	> 100 µM (inactive)	> 100 µM (inactive)	> 100 µM (inactive)	> 100 µM (inactive)
O=C(c1ccccc1)c1ccc(-n2c3ccccc3c3ccc4c(c32)C(=O)C=CC4=O)cc1	4.38 µM (inactive)	9.12 µM (inactive)	10.5 µM (inactive)	11 µM (inactive)	11.2 µM (inactive)	2.8 µM (inactive)	2.82 µM (inactive)	3.41 µM (inactive)	6.01 µM (inactive)	–	23.3 µM (inactive)	18.8 µM (inactive)	7.59 µM (inactive)	16.3 µM (inactive)	8.83 µM (inactive)	20.9 µM (inactive)	3.15 µM (inactive)	2.74 µM (inactive)	12.8 µM (inactive)
Clc1ccc(Cc2nc3ccccc3nc2-c2cccc(Br)c2)cc1	1.91 µM (inactive)	3.17 µM (inactive)	10.7 µM (inactive)	15.1 µM (inactive)	1.62 µM (inactive)	2.84 µM (inactive)	2.5 µM (inactive)	1.97 µM (inactive)	2.14 µM (inactive)	4.45 µM (inactive)	16.9 µM (inactive)	3.08 µM (inactive)	2.33 µM (inactive)	2.18 µM (inactive)	–	1.52 µM (inactive)	1.75 µM (inactive)	1.87 µM (inactive)	13.5 µM (inactive)
Nc1c(S(=O)(=O)O)cc(Nc2cccc(S(=O)(=O)/C=C/S(=O)(=O)O)c2)c2c1C(=O)c1ccccc1C2=O	> 100 µM (inactive)	> 100 µM (inactive)	> 100 µM (inactive)	> 100 µM (inactive)	> 100 µM (inactive)	> 100 µM (inactive)	> 100 µM (inactive)	> 100 µM (inactive)	> 100 µM (inactive)	> 100 µM (inactive)	> 100 µM (inactive)	> 100 µM (inactive)	> 100 µM (inactive)	> 100 µM (inactive)	> 100 µM (inactive)	> 100 µM (inactive)	> 100 µM (inactive)	–	> 100 µM (inactive)
Cc1ccc2nc3sc(=O)sc3nc2c1 [CHINOMETHIONAT]	15.2 µM (inactive)	13.9 µM (inactive)	> 100 µM (inactive)	14.2 µM (inactive)	16.2 µM (inactive)	16.6 µM (inactive)	17.1 µM (inactive)	15 µM (inactive)	16.1 µM (inactive)	–	14.3 µM (inactive)	14.8 µM (inactive)	14.5 µM (inactive)	13.7 µM (inactive)	17.9 µM (inactive)	18.2 µM (inactive)	21.1 µM (inactive)	15.4 µM (inactive)	19.4 µM (inactive)

— ChEMBL document CHEMBL1201862, “PubChem BioAssay data set” (2004)
